Values after ≈ are worked out from the molar mass of the structure shown.
What was measured:
SK-OV-3 = assay: Antiproliferative activity against human SK-OV-3 cells assessed as reduction in cell viability by MTT assay; assay type: functional, cell-based
A549 [1] = assay: Antiproliferative activity against human A549 cells assessed as reduction in cell viability by MTT assay; assay type: functional, cell-based
MCF7 [2] = assay: Antiproliferative activity against human MCF7 cells assessed as reduction in cell viability by MTT assay; assay type: functional, cell-based
HeLa [3] = assay: Antiproliferative activity against human HeLa cells assessed as reduction in cell viability by MTT assay; assay type: functional, cell-based
DU-145 [4] = assay: Antiproliferative activity against human DU-145 cells assessed as reduction in cell viability by MTT assay; assay type: functional, cell-based
HepG2 [5] = assay: Antiproliferative activity against human HepG2 cells assessed as reduction in cell viability by MTT assay; assay type: functional, cell-based
MCF7-DOX = assay: Antiproliferative activity against human MCF7-DOX cells assessed as reduction in cell viability by MTT assay; assay type: functional, cell-based
MCF7 [6] = assay: Antiproliferative activity against human MCF7 cells assessed as reduction in cell proliferation by CCK-8 assay; assay type: functional, cell-based
A549 [7] = assay: Antiproliferative activity against human A549 cells assessed as reduction in cell viability by MTS assay; assay type: functional, cell-based
HepG2 [8] = assay: Anticancer activity against human HepG2 cells assessed as reduction in cell viability; assay type: functional, cell-based
MDA-MB-231 [9] = assay: Antiproliferative activity against human MDA-MB-231 cells assessed as cell growth inhibition measured after 48 hrs by MTT assay; assay type: functional, cell-based; details: MDA-MB-231, 48 h
MDA-MB-231 [10] = assay: Cytotoxicity against human MDA-MB-231 cells assessed as cell growth inhibition by SRB assay; assay type: functional, cell-based
MCF7 [11] = assay: Cytotoxicity against human MCF7 cells assessed as cell growth inhibition by SRB assay; assay type: functional, cell-based
HeLa [12] = assay: Antiproliferative activity against human HeLa cells assessed as inhibition of cell growth incubated for 72 hrs by MTT assay; assay type: functional, cell-based
A549 [13] = assay: Antiproliferative activity against human A549 cells assessed as cell growth inhibition measured after 48 hrs by MTT assay; assay type: functional, cell-based; details: A549, 48 h
HT-29 = assay: Antiproliferative activity against human HT-29 cells assessed as cell growth inhibition measured after 48 hrs by MTT assay; assay type: functional, cell-based; details: HT-29, 48 h
MCF7 [14] = assay: Antiproliferative activity against human MCF7 cells assessed as reduction in cell viability incubated for 72 hrs by MTT assay; assay type: functional, cell-based; details: MCF7, 72 h
BT-20 = assay: Anticancer activity against human BT-20 cells assessed as cell growth inhibition; assay type: functional, cell-based
HepG2 [15] = assay: Antiproliferative activity against human HepG2 cells assessed as reduction in cell viability incubated for 72 hrs by MTT assay; assay type: functional, cell-based; details: HepG2, 72 h
Vero = assay: Cytotoxicity against African green monkey Vero cells incubated for 24 hrs by CellTiter-Glo assay; assay type: toxicity, cell-based, Chlorocebus sabaeus
4T1 = assay: Cytotoxicity against mouse 4T1 cells assessed as inhibition of cell proliferation incubated for 72 hrs by MTT assay; assay type: functional, cell-based; details: 4T1, 72 h
HepG2 [16] = assay: Anticancer activity against human HepG2 cells assessed as reduction in cell viability by MTT assay; assay type: functional, cell-based
A549 [17] = assay: Antiproliferative activity against human A549 cells assessed as reduction in cell viability measured after 24 hrs by MTT assay; assay type: functional, cell-based; details: A549, 24 h
DU-145 [18] = assay: Anticancer activity against human DU-145 cells assessed as cell growth inhibition by MTT assay; assay type: functional, cell-based
HepG2 [19] = assay: Cytotoxicity against human HepG2 cells assessed as reduction in cell viability; assay type: functional, cell-based
HCT-116 = assay: Anticancer activity against human HCT-116 cells assessed as reduction in cell viability by MTT assay; assay type: functional, cell-based
MCF7 [20] = assay: Anticancer activity against human MCF7 cells assessed as reduction in cell viability by MTT assay; assay type: functional, cell-based
MCF7 [21] = assay: Anticancer activity against human MCF7 cells assessed as cell growth inhibition by MTT assay; assay type: functional, cell-based

In the case of CO/N=C1\C(=O)N(CCOCCOCCOCCn2cc(COc3ccc4c(C)cc(=O)oc4c3)nn2)c2ccc(F)cc21, the IC50 (SK-OV-3) is reported as 35.3 µM, the IC50 (A549 [1]) is reported as 28.7 µM and the IC50 (MCF7 [2]) is reported as 29.2 µM. It also gave an IC50 (HeLa [3]) of 25.5 µM, an IC50 (DU-145 [4]) of 33.4 µM and an IC50 (HepG2 [5]) of 26.1 µM. It also gave an IC50 (MCF7-DOX) of 20.1 µM.

With CCCCCCc1c(C)c2ccc(OS(N)(=O)=O)cc2oc1=O the IC50 (MCF7 [6]) was 0.008 µM.

Cc1ccc2c(c1)C(=O)C(=O)N2CCOCCn1cc(COc2ccc3c(C)cc(=O)oc3c2)nn1 gave an IC50 (MCF7 [2]) of 28.7 µM.

With Nn1c(Cc2ccc(Cl)cc2)nn(CC(=O)NNC(=O)c2cc3cc(Cl)cc(Cl)c3oc2=O)c1=O the IC50 (A549 [7]) was 7.5 µg/mL (≈ 13.9 µM).

C/C(=N\Nc1ncc(C(=O)c2cc3ccccc3oc2=O)s1)c1ccc(C)cc1 showed an EC50 (HepG2 [8]) of 3.7 µM.

With COc1ccc2nc3ccccc3c(Nc3csc(-c4cc5ccccc5oc4=O)n3)c2c1 the IC50 (MDA-MB-231 [9]) was 8.03 µM.

Compound Cc1c(-c2csc(N)n2)c(=O)oc2cc(OC(C)(C)C(=O)O)ccc12 has an IC50 (MDA-MB-231 [10]) of 4.84 µM and an IC50 (MCF7 [11]) of 2.39 µM.

Compound Cc1nn(-c2ccccc2)c(=O)n1-n1c(-c2cc3ccccc3oc2=O)cs/c1=N\c1ccc(Cl)cc1 has an IC50 (HeLa [12]) of 0.21 µM.

O=c1oc2ccccc2cc1-c1nc(Nc2c3ccccc3nc3ccc(F)cc23)cs1 gave an IC50 (A549 [13]) of 5.18 µM and an IC50 (HT-29) of 23.1 µM.

For COc1ccc(/C=C/C(=N/O)c2ccc(NC(=O)COc3ccc4c(C)cc(=O)oc4c3)cc2)cc1, the IC50 (MCF7 [14]) was 20.9 µg/mL (≈ 43.1 µM).

Nn1c(Cc2ccccc2Br)nn(CC(=O)NNC(=O)c2cc3cc(Cl)cc(Cl)c3oc2=O)c1=O was tested, and the IC50 (BT-20) was 6.4 µg/mL (≈ 11 µM).

Work on O=c1cc(OCc2cc(-c3cc4c(cc3Cl)OCO4)no2)c2cc(Cl)ccc2o1 yielded an IC50 (HepG2 [15]) of 12.8 µM and an IC50 (Vero) of 144 µM.

For O=C(Cc1cc(=O)oc2cc(O)ccc12)NCCCCCCCCNc1c2c(nc3ccccc13)CCCC2, the IC50 (4T1) was 7 µM.

In the case of COc1ccc(C(=O)Nc2nnc(SCC(=O)Nc3ccc4oc(=O)ccc4c3)s2)cc1, the IC50 (HepG2 [16]) is reported as 24.9 µg/mL (≈ 53.1 µM).

O=C(/C(Cl)=N/Nc1ccc([N+](=O)[O-])cc1)n1c(-c2cc3ccccc3oc2=O)nc2ccccc21 showed an IC50 (A549 [17]) of 0.28 µM.

Work on CC(C)(C)c1cc(C(C)(C)C)c2oc(=O)c(-c3csc(-n4nc(-c5ccccc5)cc4N)n3)cc2c1 yielded an IC50 (DU-145 [18]) of 7 µM.

In the case of CO[C@@H]1O[C@H](Cn2nncc2COc2cc(=O)oc3ccccc23)[C@@H](O)[C@H](O)[C@H]1O, the IC50 (HepG2 [19]) is reported as 107 µg/mL (≈ 255 µM).

For O=C(CSc1nnc(NC(=O)c2ccccc2)s1)Nc1ccc2oc(=O)ccc2c1, the IC50 (HCT-116) was 30.7 µg/mL (≈ 70 µM) and the IC50 (MCF7 [20]) was 54.9 µg/mL (≈ 125 µM).

CCN(CC)c1ccc2oc(=O)c(-c3csc(-n4nc(-c5ccccc5)cc4N)n3)cc2c1 showed an IC50 (MCF7 [21]) of 8 µM.
